Where two headings read alike, the source gives them in different places.
System: SARS-CoV-2 Omicron
Assay: microbe, parasite or virus in culture
Format: cell-based
Details: Severe acute respiratory syndrome coronavirus 2, Calu-3

Compound: CC(=O)O[C@]1(C)C[C@@H](/C=C(\C)CCC=C(C)C)O[C@@]2(C=C(CO)[C@H]3CC(=O)C(C)=C[C@H]3O2)C1 [Alotaketal C]
- EC50 (read-out: Nucleocapsid EC50, Omicron): 0.14 µM
- EC50 (read-out: dsRNA EC50, Omicron): 1.54 µM
